Experimental data taken from US20120214847A1, “2-[1-PHENYL-5-HYDROXY-4a-SUBSTITUTED-HEXAHYDROCYCLOPENTA[F]INDAZOL-5-YL]ETHYL PHENYL DERIVATIVES AS GLUCOCORTICOID RECEPTOR LIGANDS” (Merck Sharp & Dohme Corp., priority 2009, published 2012).

Molecular target: T1, glucocorticoid receptor (Homo sapiens, UniProt P04150)
T1 construct: endogenous in cells; host or cells: HeLa (ATCC) cell lysate supernatant
T1 sequence (P04150 1-777): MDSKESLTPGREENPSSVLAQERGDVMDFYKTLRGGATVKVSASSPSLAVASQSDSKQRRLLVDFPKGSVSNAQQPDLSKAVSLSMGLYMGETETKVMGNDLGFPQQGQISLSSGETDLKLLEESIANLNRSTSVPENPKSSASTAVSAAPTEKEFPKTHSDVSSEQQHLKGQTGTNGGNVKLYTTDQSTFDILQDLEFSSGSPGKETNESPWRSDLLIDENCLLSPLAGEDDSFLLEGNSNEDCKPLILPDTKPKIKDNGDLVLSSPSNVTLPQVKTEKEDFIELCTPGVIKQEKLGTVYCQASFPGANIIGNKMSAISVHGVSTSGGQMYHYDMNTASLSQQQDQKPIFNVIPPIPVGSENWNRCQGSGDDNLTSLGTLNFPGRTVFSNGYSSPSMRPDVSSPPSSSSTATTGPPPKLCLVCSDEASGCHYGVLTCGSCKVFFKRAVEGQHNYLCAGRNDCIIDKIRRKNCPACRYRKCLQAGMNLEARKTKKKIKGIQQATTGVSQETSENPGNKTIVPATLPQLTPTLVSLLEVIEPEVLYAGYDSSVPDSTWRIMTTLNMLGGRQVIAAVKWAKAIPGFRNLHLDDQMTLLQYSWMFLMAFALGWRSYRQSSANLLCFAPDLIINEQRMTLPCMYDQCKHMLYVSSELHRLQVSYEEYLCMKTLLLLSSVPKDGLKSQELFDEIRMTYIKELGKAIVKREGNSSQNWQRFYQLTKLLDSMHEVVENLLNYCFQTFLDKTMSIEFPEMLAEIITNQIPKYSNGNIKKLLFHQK
Assay: Ligand binding assay (GRBind), 3H-dexamethasone displacement in HeLa cell lysate
Conditions: 3H-DEX tracer
Procedure: Binding Buffer: TEGM (10 mM Tris-HCl, 1 mM EDTA, 10% glycerol, 1 mM betamecaptoethanol, 10 mM Sodium Molybdate, pH 7.2)
50% HAP Slurry: Calbiochem Hydroxylapatite, Fast Flow, in 10 mM Tris, pH 8.0 and 1 mM EDTA.
Wash Buffer: 40 mM Tris, pH7.5, 100 mM KCl, 1 mM EDTA and 1 mM EGTA. 95% EtOH Dexmethasone-methyl-3H, (DEXA*); (Amersham cat#TRK645) Dexamethasone(DEX) (Sigma, cat#01756):
Hydroxylapatite Fast Flow; Calbiochem Cat#391947
25 Molybdate=Molybdic Acid (Sigma, M1651)
5 Cells (Hall R. E., et al., European Journal of Cancer, 30A: 484-490 (1994)) HeLa (ATCC) cultured in RPMI 1640 (Gibed 11835-055) containing 20 mM Hepes, 4 mM L-glu, 10 ug/ml of human insulin (Sigma, 1-0259), 10% FBS and 20 uglml of Gentamicin (Gibco#15710072) are rinsed twice in PBS. Phenol red-free Trypsin-EDTA is diluted in the same PBS 1:10. The cell layers are rinsed with IX Trypsin, extra Trypsin is poured out, and the cell layers are incubated at 37° C. for 2 min. The flask is tapped and checked for signs of cell detachment. Once the cells begin to slide off the flask, the complete media is added. The cells are counted at this point, then diluted to the appropriate concentration and split into flasks or dishes for further culturing (Usually 1:3 to 1:6 dilution).
Preparation of HeLa Cell Lysate
When the cells are 70 to 85% confluent, they are detached as described above, and collected by centrifuging at 1000 g for 10 min at 4° C. The cell pellet is washed twice with TEGM (10 mM Tris-HCl, 1 mM EDTA, 10% glycerol, 1 mM beta-mercaptoethanol, 10 mM Sodium Molybdate, pH 7.2). After the final wash, the cells are resuspended in TEGM at a concentration of 10^7 cells/mL. The cell suspension is snap frozen in liquid nitrogen or ethanol/dry ice bath and transferred to −80° C. freezer on dry ice. Before setting up the binding assay, the frozen samples are left on ice-water to just thaw. Then the samples are centrifuged at 12,500 g to 20,000 g for 30 min at 4° C. The supernatant is used to set-up assay right away. If using 50 μL of supernatant, the test compound can be prepared in 50 μL of the TEGM buffer.
Procedure for Multiple Compound Screening
1×TEGM buffer is prepared, and the isotope-containing assay mixture is prepared in the following order: EtOH (2% final concentration in reaction), 3H-DEX (Amersham Biosciences) and 1×TEGM. [e.g. For 100 samples, 200 JlL (100×2) of EtOH+4.25 JlL of 1:10 ^3H-Dex stock+2300 μL (100×23) 1×TEGM]. The compound is serially diluted, e.g., if starting final conc. is 1 μM, and the compound is in 25 μL of solution, for duplicate samples, 75 μL of 4×1 μM solution is made and 3 μL of 100). 1M is added to 72 μL of buffer, and 1:5 serial dilution.
25 μL of ^3H-DEX (6 nM) trace and 25 μL, compound solution are first mixed together, followed by addition of 50 μL receptor solution. The reaction is gently mixed, spun briefly at about 200 rpm and incubated at 4° C. overnight. 100 μL of 50% HAP slurry is prepared and added to the incubated reaction which is then vortexed and incubated on ice for 5 to 10 min. The reaction mixture is vortexed twice more to resuspend HAP while incubating reaction. The samples in 96-well format are then washed in wash buffer using the FilterMate™ Universal Harvester plate washer (Packard). The washing process transfers HAP pellet containing ligand-bound expressed receptor to Unifilter-96 GFIB filter plate (Packard). The HAP pellet on the filter plate is incubated with […] of MICROSCINT (Packard) scintillant for 30 min before being counted on the TopCount microscintillation counter (Packard). IC50s are calculated using DEX as a reference.

Compound	Ki [nM]
COc1ccnc(CC[C@]2(O)CCC3=Cc4c(cnn4-c4ccc(F)cc4)C[C@@]32C2CC2)c1C(F)C(N)=O (stereo partly drawn) [Example 66, 2-(2-{2-[(4aR,5R)-4a-Cyclopropyl-1-(4-fluorophenyl)-5-hydroxy-1,4,4a,5,6,7-hexahydrocyclopenta[f]indazol-5-yl]ethyl}-4-methoxypyridin-3-yl)-2-fluoroacetamide]	1.82
NS(=O)(=O)c1ccccc1CC[C@]1(O)CCC2=Cc3c(cnn3-c3cccnc3)C[C@@]21C1CC1 [Example 24, 2-{2-[(4aR,5R)-4a-Cyclopropyl-5-hydroxy-1-(pyridin-3-yl)-1,4,4a,5,6,7-hexahydrocyclopenta[f]indazol-5-yl]ethyl}benzenesulfonamide]	2.19
CC(C)(CO)NC(=O)c1ccccc1CC[C@]1(O)CCC2=Cc3c(cnn3-c3ccc(F)cc3)C[C@@]21C1CC1 [Example 45, 2-{2-[(4aR,5R)-4a-Cyclopropyl-1-(4-fluorophenyl)-5-hydroxy-1,4,4a,5,6,7-hexahydrocyclopenta[f]indazol-5-yl]ethyl}-N-(1-hydroxy-2-methylpropan-2-yl)benzamide]	2.09
CC[C@]12Cc3cnn(-c4ccc(F)cc4)c3C=C1CC[C@@]2(O)CC(O)c1ncccc1F (stereo partly drawn) [Example 76, (4aS,5R)-4a-Ethyl-1-(4-fluorophenyl)-5-[2-(3-fluoropyridin-2-yl)-2-hydroxyethyl]-1,4,4a,5,6,7-hexahydrocyclopenta[f]indazol-5-ol]	20.8
CC[C@]12Cc3cnn(-c4ccc(F)cc4)c3C=C1CC[C@@]2(O)CCc1nccc(C2CC2)c1C(=O)OC [Example 41, Methyl 4-cyclopropyl-2-{2-[(4aS,5R)-4a-ethyl-1-(4-fluorophenyl)-5-hydroxy-1,4,4a,5,6,7-hexahydrocyclopenta[f]indazol-5-yl]ethyl}pyridine-3-carboxylate]	2.63
NC(=O)CNC(=O)c1cccnc1CC[C@]1(O)CCC2=Cc3c(cnn3-c3ccc(F)cc3)C[C@@]21C1CC1 [Example 43, N-(2-Amino-2-oxoethyl)-2-{2-[(4aR,5R)-4a-cyclopropyl-1-(4-fluorophenyl)-5-hydroxy-1,4,4a,5,6,7-hexahydrocyclopenta[f]indazol-5-yl]ethyl}pyridine-3-carboxamide]	5.47
NC(=O)c1ccccc1CC[C@]1(O)CCC2=Cc3c(cnn3-c3ccc(F)cc3)C[C@@]21C1CC1 [Example 23, 2-{2-[(4aR,5R)-4a-Cyclopropyl-1-(4-fluorophenyl)-5-hydroxy-1,4,4a,5,6,7-hexahydrocyclopenta[f]indazol-5-yl]ethyl}benzamide]	1.8
CC[C@]12Cc3cnn(-c4ccc(F)cc4)c3C=C1CC[C@@]2(O)CC(O)c1cc(C#N)ccn1 (stereo partly drawn) [Example 72, 2-{2-[(4aS,5R)-4a-Ethyl-1-(4-fluorophenyl)-5-hydroxy-1,4,4a,5,6,7-hexahydrocyclopenta[f]indazol-5-yl]-1-hydroxyethyl}pyridine-4-carbonitrile]	6.25
NC(=O)Cc1c(F)cccc1CC[C@]1(O)CCC2=Cc3c(cnn3-c3ccc(F)cc3)C[C@@]21C1CC1 [Example 61, 2-(2-{2-[(4aR,5R)-4a-Cyclopropyl-1-(4-fluorophenyl)-5-hydroxy-1,4,4a,5,6,7-hexahydrocyclopenta[f]indazol-5-yl]ethyl}-6-fluorophenyl)acetamide]	2.08
CC[C@]12Cc3cnn(-c4cccnc4)c3C=C1CC[C@@]2(O)CCc1ccccc1C(N)=O [Example 13, 2-{2-[(4aS,5R)-4a-Ethyl-5-hydroxy-1-(pyridin-3-yl)-1,4,4a,5,6,7-hexahydrocyclopenta[f]indazol-5-yl]ethyl}benzamide]	28.4
CC[C@]12Cc3cnn(-c4ccc(F)cc4)c3C=C1CC[C@@]2(O)CCc1ccc(F)cc1C(N)=O [Example 8, 2-{2-[(4aS,5R)-4a-Ethyl-1-(4-fluorophenyl)-5-hydroxy-1,4,4a,5,6,7-hexahydrocyclopenta[f]indazol-5-yl]ethyl}-5-fluorobenzamide]	1.27
CC[C@]12Cc3cnn(-c4ccc(F)cc4)c3C=C1CC[C@@]2(O)CCc1nccc(OC)c1C(F)C(N)=O (stereo partly drawn) [Example 65, 2-(2-{2-[(4aS,5R)-4a-Ethyl-1-(4-fluorophenyl)-5-hydroxy-1,4,4a,5,6,7-hexahydrocyclopenta[f]indazol-5-yl]ethyl}-4-methoxypyridin-3-yl)-2-fluoroacetamide]	9.2

More lines, now with the values ahead:

Ki [nM]	Compound
2.72	CC[C@]12Cc3cnn(-c4ccc(F)cc4)c3C=C1CC[C@@]2(O)CC(O)c1ccccn1 (stereo partly drawn) [Example 68, (4aS,5R)-4a-Ethyl-1-(4-fluorophenyl)-5-[2-hydroxy-2-(pyridin-2-yl)ethyl]-1,4,4a,5,6,7-hexahydrocyclopenta[f]indazol-5-ol]
3.23	CC[C@]12Cc3cnn(-c4ccc(F)cc4)c3C=C1CC[C@@]2(O)CCc1ccccc1C(O)C(N)=O (stereo partly drawn) [Example 25, 2-(2-{2-[(4aS,5R)-4a-Ethyl-1-(4-fluorophenyl)-5-hydroxy-1,4,4a,5,6,7-hexahydrocyclopenta[f]indazol-5-yl]ethyl}phenyl)-2-hydroxyacetamide]
2.97	CC[C@]12Cc3cnn(-c4ccc(F)cc4)c3C=C1CC[C@@]2(O)CC1OC(=O)c2ccccc21 (stereo partly drawn) [Example 71, 3-{[(4aS,5R)-4a-Ethyl-1-(4-fluorophenyl)-5-hydroxy-1,4,4a,5,6,7-hexahydrocyclopenta[f]indazol-5-yl]methyl}-2-benzofuran-1(3H)-one]
1.48	CC[C@]12Cc3cnn(-c4ccc(F)cc4)c3C=C1CC[C@@]2(O)CCc1ccccc1CCC(N)=O [Example 22, 3-(2-{2-[(4aS,5R)-4a-Ethyl-1-(4-fluorophenyl)-5-hydroxy-1,4,4a,5,6,7-hexahydrocyclopenta[f]indazol-5-yl]ethyl}phenyl)propanamide]
1.97	CC[C@]12Cc3cnn(-c4ccc(F)cc4)c3C=C1CC[C@@]2(O)CCc1ccccc1S(C)(=O)=O [Example 42, (4aS,5R)-4a-Ethyl-1-(4-fluorophenyl)-5-{2-[2-(methylsulfonyl)phenyl]ethyl}-1,4,4a,5,6,7-hexahydrocyclopenta[f]indazol-5-ol]
